Assay results from patent publication US20120122727A1, “IN VITRO METHOD FOR PREDICTING WHETHER A COMPOUND IS GENOTOXIC IN VIVO” (priority 2009, published 2012).

Experiments:
[1] = test system: primary mouse hepatocytes; assay: Gene expression (Affymetrix Mouse Genome 430 2.0) in primary mouse hepatocytes, true vs false GTX, 24 h and 48 h; details: 48 h; log2, corrected for vehicle control
[2] = test system: primary mouse hepatocytes; assay: Gene expression in primary mouse hepatocytes, GTX vs non-GTX (four-gene classifier, 24 h)
Protocol: Hepatocyte cells were incubated and exposed to a compound for 24 h before being harvested for RNA isolation.
The results of the gene expression analysis may then be fed into a statistical software package such as R, Splus, or Microsoft Excel. […] If none or only one of these criteria were met, no point was scored.
For each of the four genes mentioned in the table (1700007K13RIK, GAS2L3, SPC25, DDIT4L), a statistical comparison was made between the normalized expression data for these genes. […] If none or only one of these criteria were met, no point was scored.
For each compound, the sum of the scores for four genes is taken. If this score is 0, a compound can be believed not to be genotoxic. If this score is 1, 2, 3 or 4, a compound is genotoxic.
If none or only one of these criteria were met, no point was scored.

[3] = 24 h exposure, average of four replicates
[4] = log 2 ratio, 24 h exposure, concentration per Table 4

CN(C)N=O [DMN, Dimethylnitrosamine]
Gene expression AK017734 average [1]: 1.0611
Gene expression AK018383 average [1]: 0.8246
Gene expression AK019979 average [1]: −1.11
Gene expression AV095209 average [1]: −0.454
Gene expression AV141095 average [1]: −0.8663
Gene expression AV173869 average [1]: −1.272
Gene expression AV216768 average [1]: −0.2641
Gene expression AV219418 average [1]: 4.5473
Gene expression AV221299 average [1]: −1.5693
Gene expression AV246296 average [1]: 0.9572
Gene expression AV251625 average [1]: 1.246
Gene expression AV254764 average [1]: 1.133
Gene expression AV327248 average [1]: 4.023
Gene expression BB009155 average [1]: 2.343
Gene expression BB027848 average [1]: 1.191
Gene expression BB043558 average [1]: 2.187
Gene expression BB046347 average [1]: 0.7743
Gene expression BB140436 average [1]: −1.281
Gene expression BB204486 average [1]: −0.3108
Gene expression BB223872 average [1]: 1.694
Gene expression BB246912 average [1]: −0.9806
Gene expression BB275142 average [1]: 1.162
Gene expression BB458460 average [1]: −0.6934
Gene expression BB463610 average [1]: 1.546
Gene expression BB730977 average [1]: −0.656
Gene expression BB743970 average [1]: 3.154
Gene expression BB770528 average [1]: 1.709
Gene expression BB781615 average [1]: 1.487
Gene expression BC003284 average [1]: 1.379
Gene expression BC004827 average [1]: −1.0689
Gene expression BC005552 average [1]: −0.5235
Gene expression BC006713 average [1]: 1.668
Gene expression BC010318 average [1]: −1.167
Gene expression BC012247 average [1]: 1.67
Gene expression BC012955 average [1]: −1.97
Gene expression BC013893 average [1]: 0.5487
Gene expression BC017615 average [1]: −2.7334
Gene expression BC019379 average [1]: −0.3602
Gene expression BC019882 average [1]: 1.494
Gene expression BC021352 average [1]: 3.512
Gene expression BC022148 average [1]: 1.8449
Gene expression BC025169 average [1]: −1.296
Gene expression BC026131 average [1]: −0.7571
Gene expression BC027026 average [1]: 2.571
Gene expression BC027121 average [1]: 2.075
Gene expression BC027185 average [1]: 1.462
Gene expression BE956581 average [1]: 3.033
Gene expression BF719766 average [1]: 1.2016
Gene expression BG065754 average [1]: 0.9953
Gene expression BG066491 average [1]: −0.9757
Gene expression BG076151 average [1]: 1.205
Gene expression BG076333 average [1]: −0.7995
Gene expression BG797099 average [1]: 1.704
Gene expression BG967046 average [1]: 1.1973
Gene expression BI651416 average [1]: 1.8588
Gene expression BI966443 average [1]: 3.295
Gene expression BM198879 average [1]: 1.096
Gene expression BM200015 average [1]: 1.16
Gene expression BM230508 average [1]: 1.54
Gene expression BM936480 average [1]: 0.7781
Gene expression BQ174991 average [1]: −0.28
Gene expression L21027 average [1]: −0.4472
Gene expression NM_007556 average [1]: −1.29
Gene expression NM_007980 average [1]: 0.3252
Gene expression NM_007987 average [1]: 1.665
Gene expression NM_008522 average [1]: 4.993
Gene expression NM_008935 average [1]: −1.382
Gene expression NM_009897 average [1]: 3.619
Gene expression NM_011075 average [1]: 2.401
Gene expression NM_011176 average [1]: 1.597
Gene expression NM_011316 average [1]: 2.0898
Gene expression NM_012006 average [1]: 1.6671
Gene expression NM_013642 average [1]: 0.3461
Gene expression NM_013738 average [1]: 1.562
Gene expression NM_013929 average [1]: 1.891
Gene expression NM_018881 average [1]: 0.9481
Gene expression NM_019738 average [1]: −2.9169
Gene expression NM_030697 average [1]: 2.5583
Gene expression NM_053122 average [1]: −2.3248
Gene expression NM_134147 average [1]: −1.579
Gene expression NM_134188 average [1]: −0.6378
Gene expression X62701 average [1]: 0.07157
score 1700007K13RIK [2, 3]: 1
score DDIT4L [2, 3]: 0
score GAS2L3 [2, 3]: 0
score SPC25 [2, 3]: 0
Ratios of gene expression treated/untreated 1700007K13RIK [2, 4]: 2.141
Ratios of gene expression treated/untreated DDIT4L [2, 4]: 0.7662
Ratios of gene expression treated/untreated GAS2L3 [2, 4]: 0.2166
Ratios of gene expression treated/untreated SPC25 [2, 4]: 0.8368
Total score ([2]; sum of scores for four genes, 0 = not genotoxic, 1, 2, 3 or 4 = genotoxic): 1
